# In patent US20130210034A1, “COMPLEX PHOSPHOPROTEIN ACTIVATION PROFILES” (BECKMAN COULTER, INC., priority 2005, published 2013):
# Several values for one entry are separate records, joined by “and”; a condition that tells them apart may be missing. Identical values can stand only once.
# Legend:
# Experiment in all cases: Phosphoprotein kinetic profiles in bone marrow samples from healthy donors
# Type in all cases: cell-based, human
# pSTAT5 = conditions: for pSTAT5 Amp (peak amplitude of fold stimulation) / pSTAT5 RI (response interval): CD34^+, healthy donor samples
# Experimental: (§1) Phosphoprotein kinetic profiles were analyzed in bone marrow aspiration samples from nine healthy, adult donors (i.e., normal bone marrow or NBM) and from five AML patients. Samples from healthy donors included 5 males and 4 females, ranging in age from 26 to 49 years. Approximately 10 to 20 mL of bone marrow (BM) samples were collected from the posterior iliac crest of the volunteers using IRB approved protocols. The BM samples were filtered using a 40 μm Nylon cell strainer to remove marrow particles and the white blood cell concentration determined using a blood analyzer. […] The samples were immediately used for subsequent experimentation.
# (§2) To assess the signal transduction response after growth factor simulation, 100 to 200 μL of processed samples including about 2×10^6 WBC/100 μL were added to tubes and incubated at 37° C. for 30 minutes. For inhibition experiments, cells were incubated with 100 μM U0126, 1 μg/mL rapamycin, or both for at least 20 minutes prior to cytokine addition and in all cases for 30 min prior to formaldehyde addition. […] After stimulation the cells were immediately fixed by the addition of formaldehyde to a final concentration of 4% v/v and incubated for 10 minutes at room temperature. Following fixation, red blood cells were lysed by the addition of TRITON-X/PBS solution (0.1% v/v final concentration Triton X-100) supplemented with a 1 x phosphatase inhibitor cocktail (PIC; final concentrations: 0.2 mM sodium orthovanadate, 2 mM sodium pyrophosphate decahydrate, 2 mM [3-glycerophosphate, and 10 mM sodium fluoride) and incubation at 37° C. for 20 minutes. The incubated solution was chilled by the addition of ice-cold Wash Buffer (final concentration 1×PBS and either 4% bovine serum albumin (BSA) or 4% heat-inactivated fetal bovine serum (FBS), supplemented with 1×PIC), and the samples were centrifuged at 300 g for 6 minutes at 4° C.). If the lysis was incomplete, samples were retreated with 0.1% Triton X-100 at 37° C. for 10 to 20 minutes. After removal of the supernatant, cells were washed twice in ice-cold Wash Buffer supplemented with 1×PIC and permeabilized by the addition of pre-chilled 80% methanol while simultaneously vortexing the tube and incubated on ice for 10 minutes. Methanol was removed by centrifugation, the pellet was washed with ice-cold 1×PBS, and non-specific binding was blocked by the addition of ice-cold Wash Buffer supplemented with 1×PIC and incubation at 4° C. for a minimum of 30 minutes.
# (§3) To stain cells with fluorescent conjugated monoclonal antibodies, the incubated solution was centrifuged to remove the supernatant and the pellet was incubated for 60 minutes at 4° C. with an antibody staining solution including 0.25 μg to 0.50 μg of pS6-Pacific Blue, pERK-ALEXA 488, pSTAT5-ALEXA 647, CD34-PE, CD45-PerCP, and CD117-PC7. Samples were washed three times with ice-cold Wash Buffer supplemented with 1×PIC, resuspended in 0.5 mL ice-cold Wash Buffer supplemented with 1×PIC including 0.5 μg/mL DAPI, and analyzed by flow cytometryusing a BD LSR II Flow Cytometer, equipped with a High Throughput Sampler (HTS).
# (§4) First, doublets, aggregates, and debris were excluded by gating on single cell events in the SSC-Area versus SSC-Height histogram. Then, in events passing through this gate, debris near the origin of the FSC-Area versus SSC-Area plot (gray in FIG. 4A) was excluded by drawing a gate around an area encompassing, primarily, lymphocytes, monocytes, and granulocytes (LMG, black in FIG. 4A). Next, in cells passing through the LMG gate, the blast region (circle in FIG. 4B) was identified in the CD45 versus SSC-Area histogram (FIG. 4B). From this blast population, CD34+, CD117+ cells were identified in the CD34 versus CD117 plot (boxed area in FIG. 4C).
# pERK = conditions: for pERK Amp (peak amplitude of fold stimulation) / pERK RI (response interval): CD34^+, CD117^+ cells
# Experimental: as §1, §2, §3, §4
# pS6 = conditions: for pS6 Amp (peak amplitude of fold stimulation) / pS6 RI (response interval): CD34^+
# Experimental: as §1, §2, §3, §4
# [1] = SCF-stimulated, healthy donor samples
# [2] = SCF-stimulated, mean of healthy donors 6 to 9
# [3] = CD117^+ cells, healthy donor samples
# [4] = monocytes vs CD34^+, CD117^+ cells
# [5] = monocytes, healthy donor bone marrow
molecule,measurement,setting,value
Stem Cell Factor [SCF],pSTAT5 Amp (peak amplitude of fold stimulation),pSTAT5; CD117^+ cells,0.8 ± 0.2
same,pSTAT5 RI (response interval),pSTAT5; CD117^+ cells,Variable
same,pERK Amp (peak amplitude of fold stimulation),pERK; healthy donor samples,120 and 120 ± 28
same,pERK RI (response interval),pERK; healthy donor samples,8.7 min and 8.7 ± 0.3 min
same,"frequency of positively stained cells at its maximum, pERK",pERK; [1],81%
same,"Fold Stimulation, pERK",pERK; [2],53
same,"Frequency, pERK",pERK; [2],81
same,"MFI, pERK",pERK; [2],3700
same,"Positives/Negatives, pERK",pERK; [2],4.9
same,pS6 Amp (peak amplitude of fold stimulation),pS6; [3],18 ± 5.1
same,pS6 RI (response interval),pS6; [3],28 min and 28 ± 1.2 min
same,"frequency of positively stained cells at its maximum, pS6",pS6; [1],26%
same,"Fold Stimulation, pS6",pS6; [2],10
same,"Frequency, pS6",pS6; [2],26
same,"MFI, pS6",pS6; [2],1040
same,"Positives/Negatives, pS6",pS6; [2],0.44
Granulocyte-Macrophage Colony-Stimulating Factor [GM-CSF],pSTAT5 RI (response interval),pSTAT5; CD117^+ cells,>60 min
same,"pSTAT5 maximal fold stimulation in monocytes, times the level observed in CD34^+, CD117^+ cells",pSTAT5; [4],about 500 times
same,pSTAT5 maximal fold stimulation,pSTAT5; [5],"approximately 10,000"
same,pERK Amp (peak amplitude of fold stimulation),pERK; healthy donor samples,4.5 and 4.5 ± 0.6
same,pERK RI (response interval),pERK; healthy donor samples,Variable
same,pERK maximal fold stimulation,pERK; [5],about 100
same,pS6 Amp (peak amplitude of fold stimulation),pS6; [3],1.8 and 1.8 ± 0.3
same,pS6 RI (response interval),pS6; [3],Variable
same,"pS6 maximal fold stimulation in monocytes, times the level observed in CD34^+, CD117^+ cells",pS6; [4],about 100 times
same,pS6 maximal fold stimulation,pS6; [5],about 500
"FMS-Like Tyrosine Kinase 3 (FLT-3) ligand (protein, UniProt P49771 27-235, looked up) Fms-related tyrosine kinase 3 …: TQDCSFQHSPISSDFAVKIRELSDYLLQDYPVTVASNLQDEELCGGLWRLVLAQRWMERLKTVAGSKMQGLLERVNTEIHFVTKCAFQPPPSCLRFVQTNISRLLQETSEQLVALKPWITRQNFSRCLELQCQPDSSTLPPPWSPRPLEATAPTAPQPPLLLLLLLPVGLLLLAAAWCLHWQRTRRRTPRPGEQVPPVPSPQDLLLVEH",pSTAT5 Amp (peak amplitude of fold stimulation),pSTAT5; CD117^+ cells,0.8 ± 0.2
same,pSTAT5 RI (response interval),pSTAT5; CD117^+ cells,Variable
same,pERK Amp (peak amplitude of fold stimulation),pERK; healthy donor samples,51 and 51 ± 11
same,pERK RI (response interval),pERK; healthy donor samples,18 min and 18 ± 1.5 min
same,pS6 Amp (peak amplitude of fold stimulation),pS6; [3],12 and 12 ± 1.4
same,pS6 RI (response interval),pS6; [3],37 min and 37 ± 6.0 min
